Patent US20060111259A1, “Detergent composition” (Conopco Inc, d/b/a UNILEVER, priority 2004, published 2006)

System: Staphylococcus epidermidis biofilm
Assay: In-vitro biofilm microtitre plate assay, regrowth of biofilm after 1 minute treatment (growth index, GRI)
Assay type: cell-based
Conditions: conclusion in words from normalised GRI of soap + clay + antibacterial combinations
Procedure: A biofilm based microtitre plate assay was used to determine the antibacterial efficacy of the test suspensions. The efficacy is measured in terms of an index called the growth index [GRI].
An axillary isolate of Staphylococcus epidermidis was used for all the studies. The isolate was maintained on sterile CYAgar [Blood agar base 2—42 gm.1^−1, dextrose—2 gm.1^−1, yeast extract—3 gm.1^−1, polysorbate 80—5 gm.1^−1]. 24 hrs prior to the study, the isolate was subcultured onto fresh sterile CYAgar and incubated at 37° C. […]
Standardization of biofilm in terms of its attachment to polystyrene wells was initially carried out by crystal violet staining and quantification of cell numbers. […]
A kinetic assay was performed to measure the regrowth of the biofilm in an iEMS reader using the Thermo Labsystems Ascent Software™. Readings were recorded at 37° C. for 24 hrs on an hourly basis at 620 nm.
Growth of bacteria is represented by 4 phases—lag phase, exponential phase, stationary phase and death phase. […] The cumulative effect of the antibacterial over the placebo effect can be determined by the product of the increase in the time taken to reach the mid log phase from the control, and the decrease in the cell density after 24 hrs of growth. […]

| Compound | synergistic benefit in antibacterial efficacy |
| --- | --- |
| O=C(Nc1ccc(Cl)cc1)Nc1ccc(Cl)c(Cl)c1 [TCC, 3,4,4′ trichlorocarbanilide] | do not provide similar synergistic benefit |
| Oc1cc(Cl)ccc1Oc1ccc(Cl)cc1Cl [TCN, 4,2′,4′-trichloro-2-hydroxy diphenyl ether] | do not provide similar synergistic benefit |
